A short description of data set [1]: Chemical stability assessment (UHPLC-UV purity loss on storage in solution). In kind it is physicochemical. The procedure, abridged:
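Peptides dissolved at ~300 μM (purity-corrected) in 20 mM phosphate pH 7.4, or 8 mM phosphate pH 7.4 with 14 mg/ml propylene glycol and 5.5 mg/ml phenol; filtered, stored 28 days at 5 and 40 °C. Supernatant analysed by UHPLC-UV; stability expressed as relative purity loss.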

The nature of data set [2]: Solubility assessment (UHPLC-UV of supernatant, target 10 mg/ml). In kind it is physicochemical. As to conditions: read-out: Soluble amount. An outline of the steps:
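Peptides at 10 mg/ml (purity-corrected) in 100 mM phosphate pH 7.4, optionally with 2.7 mg/ml m-cresol; gentle agitation 1 h, then 5° C. overnight (24 h). Supernatant after 15 min centrifugation at 2500 RCF quantified by UHPLC-UV, with sequence-based extinction coefficients.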

Data set [3] has as its target human GLP-1 receptor (hGLP-1R) (Homo sapiens, UniProt P43220). The data set is described as follows: In vitro cellular cAMP assay for GLP-1 receptor efficacy (HEK-293 cell line over-expressing receptor). As to conditions: HEK-293, 0.1% BSA. It is filed as cell-based. For orientation: cAMP levels reflect the balance of adenylyl cyclase and phosphodiesterase activity.
The target of data set [4] is T1, human GIP receptor (hGIPR) (Homo sapiens, UniProt P48546).
T1 sequence (P48546 22-466): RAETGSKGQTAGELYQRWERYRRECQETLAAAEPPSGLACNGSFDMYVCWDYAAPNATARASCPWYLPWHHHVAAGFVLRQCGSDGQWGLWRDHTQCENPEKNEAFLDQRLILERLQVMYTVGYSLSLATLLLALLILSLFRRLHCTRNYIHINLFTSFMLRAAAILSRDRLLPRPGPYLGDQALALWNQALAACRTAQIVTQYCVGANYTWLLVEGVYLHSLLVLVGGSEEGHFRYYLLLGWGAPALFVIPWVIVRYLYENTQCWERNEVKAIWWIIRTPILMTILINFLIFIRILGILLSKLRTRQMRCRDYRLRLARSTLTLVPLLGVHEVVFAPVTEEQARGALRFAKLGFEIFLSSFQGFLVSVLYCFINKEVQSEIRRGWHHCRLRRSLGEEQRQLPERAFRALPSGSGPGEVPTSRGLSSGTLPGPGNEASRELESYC
Briefly: In vitro cellular cAMP assay for GIP receptor efficacy (HEK-293 cell line over-expressing receptor). It is filed as cell-based. As to conditions: EC50 hGIPR 0.1% BSA, HEK-293, 0.1% BSA.

Data set [5] can be described thus: Pharmacokinetic evaluation in mice. It is filed as in vivo, female C57Bl/6 mice. As to conditions: female, C57Bl/6, mouse, plasma, mice; for AUC(0-t): read-out: AUClast; for Cmax: read-out: Cmax; for half-life: read-out: T1/2 (converted). The procedure: (§1) Compounds were administered in a suitable buffer system, e.g. PBS buffer solution at pH7.4 or DPBS solution at concentrations of 0.05, 0.1, 0.5 or 1 mg/ml depending on dose, species and administration volume. Female C57Bl/6 mice were dosed 0.25 mg/kg, 0.5 mg/kg or 1 mg/kg intravenously (i.v.) or subcutaneously (s.c.). The mice were sacrificed, and blood samples were collected after 0.08, 0.25, 0.5, 1, 2, 4, 8, 24, 32, and 48 h post i.v. application and 0.25, 0.5, 1, 2, 4, 8, 24, 32, and 48 h post s.c. application, respectively. Plasma samples were analysed after protein precipitation via liquid chromatography mass spectrometry (LC/MS). PK parameters and half-life were calculated using Phoenix-WinNonlin 8.1 using a non-compartmental model and linear trapezoidal interpolation calculation. Pharmacokinetic profiles were determined as described in Methods.

Data set [6] is described as follows: Pharmacokinetic evaluation in rats. In kind it is in vivo. As to conditions: male, SD, rat, plasma, rats; for AUC(0-t): read-out: AUClast; for Cmax: read-out: Cmax; for half-life: read-out: T1/2 (converted). The procedure:
as §1, with “Male SD rats” for “Female C57Bl/6 mice”, “Blood” for “The mice were sacrificed, and blood”

Where [7] appears, read: iv, 0.25 mg/kg i.v., read-out: Cl (converted).
Where [8] appears, read: sc, 0.5 mg/kg s.c., read-out: F.

In brackets after ≈: the same amount, converted by molar mass. Like-named read-outs stand apart in the source and are kept apart here. A value given as a limit tells only on which side of the number the result lay.

human GLP-1 receptor (hGLP-1R), sequence (P43220 24-463): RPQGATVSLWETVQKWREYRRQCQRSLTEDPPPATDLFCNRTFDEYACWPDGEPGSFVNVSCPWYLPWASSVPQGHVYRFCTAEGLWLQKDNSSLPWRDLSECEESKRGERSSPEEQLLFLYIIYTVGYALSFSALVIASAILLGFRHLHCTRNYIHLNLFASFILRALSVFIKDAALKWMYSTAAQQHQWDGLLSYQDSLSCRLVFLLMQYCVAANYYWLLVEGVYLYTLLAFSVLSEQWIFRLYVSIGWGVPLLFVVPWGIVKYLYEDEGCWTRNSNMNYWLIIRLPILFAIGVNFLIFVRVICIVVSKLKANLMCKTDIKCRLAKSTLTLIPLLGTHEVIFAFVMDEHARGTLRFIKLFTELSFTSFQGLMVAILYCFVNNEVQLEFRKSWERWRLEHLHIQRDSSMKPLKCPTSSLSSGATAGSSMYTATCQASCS

For the compound `CC[C@H](C)[C@H](NC(=O)[C@H](CCCNC(=N)N)NC(=O)[C@H](CC(=O)O)NC(=O)[C@H](CCCCNC(=O)COCCOCCNC(=O)COCCOCCNC(=O)CC[C@H](NC(=O)CCCCCCCCCCCCCCCCC(=O)O)C(=O)O)NC(=O)C(C)(C)NC(=O)[C@@H](NC(=O)[C@H](CO)NC(=O)[C@H](CC(C)C)NC(=O)[C@H](CC(=O)O)NC(=O)[C@H](CO)NC(=O)[C@@H](NC(=O)[C@H](Cc1ccccc1)NC(=O)[C@@H](NC(=O)CNC(=O)[C@H](CCC(=O)O)NC(=O)C(C)(C)NC(=O)[C@@H](N)Cc1ccc(O)cc1)[C@@H](C)O)[C@@H](C)CC)[C@@H](C)CC)C(=O)N[C@@H](Cc1c[nH]cn1)C(=O)N[C@@H](CCC(N)=O)C(=O)NC(C)(C)C(=O)N[C@@H](CCC(=O)O)C(=O)N[C@@H](Cc1ccccc1)C(=O)N[C@H](C(=O)N[C@@H](CCC(=O)O)C(=O)N[C@@H](Cc1c[nH]c2ccccc12)C(=O)N[C@@H](CC(C)C)C(=O)N[C@@H](CC(C)C)C(=O)N[C@@H](C)C(=O)N[C@@H](CCC(N)=O)C(=O)N[C@@H](CCCNC(=N)N)C(=O)NCC(N)=O)[C@@H](C)CC` [SEQ ID NO: 6, H2N-Y-Aib-E-G-T-F-I-S-D-L-S-I-Aib-K[{AEEA}2-gGlu-C18OH]-D-R-I-H-Q-Aib-E-F-I-E-W-L-L-A-Q-R-G-NH2], the “Relative purity loss over 28 days at 40° C.” value in data set [1] (Chemical stability buffer system A: 20 mM phosphate buffer pH 7.4, ~300 μM) turned out to be 5.6%; in data set [1] (Chemical stability buffer system B: 8 mM phosphate buffer pH 7.4, 14 mg/ml propylene glycol, 5.5 mg/ml phenol) it was 5.9%. Moreover, the solubility at 24 h is above 9000 µg/mL in data set [2] (100 mM phosphate buffer pH 7.4 (solubility buffer system A), pH 7.4, Solubility buffer system A: 100 mM phosphate buffer pH 7.4) and 1800 µg/mL (≈ 415 µM) in data set [2] (pH 7.4, Solubility buffer system C: 100 mM phosphate buffer pH 7.4, 2.7 mg/ml m-cresol). The EC50 (commonly the concentration needed to bring the measured effect to its halfway point) in data set [3] was above 10000 pM; in data set [4] it was 5.93 pM. For the same compound, the AUC(0-t) was 20800 ng·h/mL in data set [5] (iv, 0.25 mg/kg i.v.); 37500 ng·h/mL in data set [5] (sc, 0.5 mg/kg s.c.); 35700 ng·h/mL in data set [6] (iv, 0.25 mg/kg i.v.); 69100 ng·h/mL in data set [6] (sc, 0.5 mg/kg s.c.). The clearance is 0.198 mL/min/kg in data set [5] (setting [7]) and 0.112 mL/min/kg in data set [6] (setting [7]). Moreover, the highest concentration (Cmax) (as a rule, the peak of the concentration-time curve) in data set [5] (iv, 0.25 mg/kg i.v.) was 3470 ng/mL; in data set [5] (sc, 0.5 mg/kg s.c.), 2390 ng/mL; in data set [6] (iv, 0.25 mg/kg i.v.), 4620 ng/mL; in data set [6] (sc, 0.5 mg/kg s.c.), 2880 ng/mL. The half-life in data set [5] (iv, 0.25 mg/kg i.v.) is 7.9 h; in data set [5] (sc, 0.5 mg/kg s.c.), 8.21 h; in data set [6] (iv, 0.25 mg/kg i.v.) it was 11.2 h; in data set [6] (sc, 0.5 mg/kg s.c.) it was 9.7 h. Further, the bioavailability in data set [5] (setting [8]) was found to be 91%; in data set [6] (setting [8]) it was 98%.

(Values after patent US20240360194A1, “New Peptides as Potent and Selective GIP Receptor Agonists” (Sanofi, priority 2021, published 2024).)
